Experimental data: PubChem BioAssay (NCI)
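A five-concentration, 48-hour dose response in 96-well plates underlies each endpoint, interpolated linearly between surrounding concentrations. TGI: total growth inhibition.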

Columns and labels:
Assay in all cases: NCI-60 cell line screen, 48 h
NCI/ADR-RES ovarian = system: NCI/ADR-RES ovarian
RXF 393 renal = system: RXF 393 renal
MOLT-4 leukemia = system: MOLT-4 leukemia
HOP-62 NSCLC = system: HOP-62 NSCLC
A498 renal = system: A498 renal
COLO 205 colon = system: COLO 205 colon
SNB-19 CNS = system: SNB-19 CNS
OVCAR-4 ovarian = system: OVCAR-4 ovarian
PC-3 prostate = system: PC-3 prostate
BT-549 breast = system: BT-549 breast
T-47D breast = system: T-47D breast
UACC-257 melanoma = system: UACC-257 melanoma
HT29 colon = system: HT29 colon
CCRF-CEM leukemia = system: CCRF-CEM leukemia
MDA-MB-435 = system: MDA-MB-435
TK-10 renal = system: TK-10 renal
M14 melanoma = system: M14 melanoma
SN12C renal = system: SN12C renal
U251 CNS = system: U251 CNS
OVCAR-5 ovarian = system: OVCAR-5 ovarian
MDA-MB-231 breast = system: MDA-MB-231 breast
HS 578T breast = system: HS 578T breast
RPMI-8226 leukemia = system: RPMI-8226 leukemia
MDA-N = system: MDA-N
SF-539 CNS = system: SF-539 CNS
EKVX NSCLC = system: EKVX NSCLC
SNB-75 CNS = system: SNB-75 CNS
OVCAR-3 ovarian = system: OVCAR-3 ovarian
MCF7 breast = system: MCF7 breast
MALME-3M melanoma = system: MALME-3M melanoma
786-0 renal = system: 786-0 renal
ACHN renal = system: ACHN renal
NCI-H226 lung = system: NCI-H226 lung
SR leukemia = system: SR leukemia
HCT-116 colon = system: HCT-116 colon
A549 NSCLC = system: A549 NSCLC
SF-268 CNS = system: SF-268 CNS
SK-MEL-28 melanoma = system: SK-MEL-28 melanoma
UACC-62 melanoma = system: UACC-62 melanoma
KM12 colon = system: KM12 colon
HOP-92 NSCLC = system: HOP-92 NSCLC
LOX IMVI melanoma = system: LOX IMVI melanoma
HCC-2998 colon = system: HCC-2998 colon
NCI-H460 lung = system: NCI-H460 lung
OVCAR-8 ovarian = system: OVCAR-8 ovarian
SK-OV-3 ovarian = system: SK-OV-3 ovarian
SF-295 CNS = system: SF-295 CNS
DU-145 prostate = system: DU-145 prostate
CAKI-1 renal = system: CAKI-1 renal
SK-MEL-5 melanoma = system: SK-MEL-5 melanoma
HCT-15 colon = system: HCT-15 colon

`O=Cc1ccc(Oc2c3ccccc3nc3ccccc23)cc1` gave a TGI (NCI/ADR-RES ovarian) greater than 100 µM, a TGI (RXF 393 renal) of 21.5 µM and a TGI (MOLT-4 leukemia) of 6.08 µM. The TGI (HOP-62 NSCLC) was 33.9 µM, the TGI (A498 renal) was 14.5 µM and the TGI (COLO 205 colon) was 10.1 µM. For the same molecule, the TGI (SNB-19 CNS) was 36.4 µM, the TGI (OVCAR-4 ovarian) was 16.3 µM and the TGI (PC-3 prostate) was 20.1 µM. For the same molecule, the TGI (BT-549 breast) was 37.4 µM, the TGI (T-47D breast) was 12.5 µM and the TGI (UACC-257 melanoma) was 4.89 µM. For the same molecule, the TGI (HT29 colon) was 4.38 µM, the TGI (CCRF-CEM leukemia) was 6.72 µM and the TGI (MDA-MB-435) was 6.85 µM. For the same molecule, the TGI (TK-10 renal) was 19.5 µM, the TGI (M14 melanoma) was 10.7 µM and the TGI (SN12C renal) was 11.1 µM. For the same molecule, the TGI (U251 CNS) was 21.9 µM, the TGI (OVCAR-5 ovarian) was 16.7 µM and the TGI (MDA-MB-231 breast) was 13.3 µM. For the same molecule, the TGI (HS 578T breast) was 7.91 µM, the TGI (RPMI-8226 leukemia) was 5.95 µM and the TGI (MDA-N) was 13.8 µM. It also gave a TGI (SF-539 CNS) of 4.12 µM, a TGI (EKVX NSCLC) of 40.2 µM and a TGI (SNB-75 CNS) of 29.5 µM. The TGI (OVCAR-3 ovarian) was 26 µM, the TGI (MCF7 breast) was 45.4 µM and the TGI (MALME-3M melanoma) was 30 µM. For the same molecule, the TGI (786-0 renal) was 6.16 µM, the TGI (ACHN renal) was 14 µM and the TGI (NCI-H226 lung) was 20.2 µM. The TGI (SR leukemia) was 7.19 µM, the TGI (HCT-116 colon) was 4.9 µM and the TGI (A549 NSCLC) was 49 µM. The TGI (SF-268 CNS) was 17.6 µM, the TGI (SK-MEL-28 melanoma) was 25.6 µM and the TGI (UACC-62 melanoma) was 2.74 µM. The TGI (KM12 colon) was 58.7 µM, the TGI (HOP-92 NSCLC) was 17.7 µM and the TGI (LOX IMVI melanoma) was 11.7 µM. The TGI (HCC-2998 colon) was 28.6 µM, the TGI (NCI-H460 lung) was 33.8 µM and the TGI (OVCAR-8 ovarian) was 21 µM. It also gave a TGI (SK-OV-3 ovarian) of 21.6 µM, a TGI (SF-295 CNS) of 55.4 µM and a TGI (DU-145 prostate) of 13.7 µM. For the same molecule, the TGI (CAKI-1 renal) was 22.3 µM, the TGI (SK-MEL-5 melanoma) was 24.2 µM and the TGI (HCT-15 colon) was 19.5 µM.
